Measurements taken from the NIST ThermoML archive (doi:10.1016/j.fluid.2012.08.030).
± gives the expanded uncertainty stated by the source.

Assays:
[1] = xn = mol fraction of the nth substance listed; conditions: 101 kPa, Liquid, Vibrating tube method
[2] = Liquid; for mass density: 101 kPa, Vibrating tube method; for vapor or sublimation pressure: Ebulliometric method (Recirculating still)

CCOCCO [2-ethoxyethan-1-ol] + CN1CCCC1=O
mass density [kg/m3], [1]
Conditions	303.15 K	308.15 K	313.15 K	318.15 K
x2 = 0	921.21 ± 0.11	916.48 ± 0.11	911.88 ± 0.11	907.79 ± 0.11
x2 = 0.101	936.06 ± 0.3	931.85 ± 0.31	927.8 ± 0.32	924.28 ± 0.33
x2 = 0.202	949.87 ± 0.28	946.07 ± 0.29	942.45 ± 0.3	939.35 ± 0.3
x2 = 0.302	962.64 ± 0.26	959.15 ± 0.27	955.84 ± 0.27	953.02 ± 0.28
x2 = 0.402	974.38 ± 0.24	971.1 ± 0.24	967.97 ± 0.25	965.3 ± 0.25
x2 = 0.503	985.1 ± 0.22	981.93 ± 0.22	978.86 ± 0.22	976.19 ± 0.22
x2 = 0.602	994.78 ± 0.2	991.62 ± 0.2	988.5 ± 0.2	985.68 ± 0.2
x2 = 0.702	1003.45 ± 0.18	1000.2 ± 0.18	996.91 ± 0.18	993.82 ± 0.17
x2 = 0.802	1011.12 ± 0.17	1007.68 ± 0.17	1004.1 ± 0.16	1000.58 ± 0.15
x2 = 0.851	1014.58 ± 0.16	1011.01 ± 0.16	1007.23 ± 0.15	1003.46 ± 0.14
x2 = 0.901	1017.78 ± 0.15	1014.06 ± 0.15	1010.06 ± 0.14	1006 ± 0.13
x2 = 0.926	1019.29 ± 0.15	1015.48 ± 0.14	1011.37 ± 0.13	1007.14 ± 0.12
x2 = 0.951	1020.74 ± 0.15	1016.84 ± 0.14	1012.59 ± 0.13	1008.2 ± 0.12
x2 = 0.982	1022.5 ± 0.14	1018.47 ± 0.14	1014.05 ± 0.13	1009.43 ± 0.12

COCCO [2-methoxyethan-1-ol] + CN1CCCC1=O
mass density [kg/m3], [1]
Conditions	303.15 K	308.15 K	313.15 K	318.15 K
x2 = 0	955.74 ± 0.09	951.14 ± 0.1	946.25 ± 0.1	941.59 ± 0.1
x2 = 0.084	965.64 ± 0.24	961.46 ± 0.25	957.05 ± 0.26	952.92 ± 0.27
x2 = 0.171	975.06 ± 0.23	971.25 ± 0.23	967.28 ± 0.24	963.59 ± 0.25
x2 = 0.261	983.98 ± 0.21	980.47 ± 0.21	976.83 ± 0.22	973.49 ± 0.23
x2 = 0.354	992.29 ± 0.19	989 ± 0.19	985.62 ± 0.2	982.52 ± 0.2
x2 = 0.451	999.91 ± 0.17	996.77 ± 0.17	993.52 ± 0.17	990.55 ± 0.17
x2 = 0.552	1006.73 ± 0.15	1003.64 ± 0.15	1000.44 ± 0.15	997.46 ± 0.15
x2 = 0.657	1012.64 ± 0.13	1009.49 ± 0.13	1006.19 ± 0.13	1003.04 ± 0.12
x2 = 0.767	1017.5 ± 0.12	1014.17 ± 0.11	1010.64 ± 0.11	1007.15 ± 0.1
x2 = 0.881	1021.17 ± 0.11	1017.52 ± 0.11	1013.58 ± 0.1	1009.56 ± 0.09
x2 = 0.916	1022 ± 0.1	1018.23 ± 0.1	1014.14 ± 0.09	1009.93 ± 0.09
x2 = 0.94	1022.5 ± 0.1	1018.64 ± 0.1	1014.43 ± 0.09	1010.07 ± 0.09
x2 = 0.97	1023.01 ± 0.1	1019.04 ± 0.09	1014.68 ± 0.09	1010.13 ± 0.09
x2 = 0.988	1023.3 ± 0.1	1019.24 ± 0.09	1014.78 ± 0.09	1010.1 ± 0.09

CN1CCCC1=O [N-methylpyrrolidone]
[2]
Conditions	mass density [kg/m3]	vapor or sublimation pressure [kPa]
303.15 K	1023.45 ± 0.09	–
308.15 K	1019.34 ± 0.09	–
313.15 K	1014.82 ± 0.09	–
318.15 K	1010.06 ± 0.09	–
430.09 K	–	28.1 ± 6
436.5 K	–	34.2 ± 6
442.88 K	–	41.3 ± 6
448.05 K	–	47.9 ± 6
452.13 K	–	53.7 ± 6
456.48 K	–	60.5 ± 6
461.17 K	–	68.6 ± 6
465.29 K	–	76.4 ± 6
467.66 K	–	81.2 ± 6
471.15 K	–	88.7 ± 6
474.01 K	–	95.3 ± 6

CN1CCCC1=O [N-methylpyrrolidone] + CCCCOCCO
[1], x1 = 1
Conditions	mass density [kg/m3]
303.15 K	1023.45 ± 0.09
308.15 K	1019.34 ± 0.09
313.15 K	1014.82 ± 0.09
318.15 K	1010.06 ± 0.09

COCCO [2-methoxyethan-1-ol]
[2]
Conditions	mass density [kg/m3]	vapor or sublimation pressure [kPa]
303.15 K	955.74 ± 0.1	–
308.15 K	951.14 ± 0.1	–
313.15 K	946.25 ± 0.1	–
318.15 K	941.59 ± 0.1	–
364.15 K	–	28.1 ± 6
368.84 K	–	34.2 ± 6
373.48 K	–	41.3 ± 6
377.22 K	–	47.9 ± 6
380.17 K	–	53.7 ± 6
383.3 K	–	60.5 ± 6
386.66 K	–	68.6 ± 6
389.59 K	–	76.4 ± 6
391.28 K	–	81.2 ± 6
393.75 K	–	88.7 ± 6
395.78 K	–	95.3 ± 6

CN1CCCC1=O [N-methylpyrrolidone] + COCCO
[1], x1 = 1
Conditions	mass density [kg/m3]
303.15 K	1023.45 ± 0.09
308.15 K	1019.34 ± 0.09
313.15 K	1014.82 ± 0.09
318.15 K	1010.06 ± 0.09

CCCCOCCO [2-butoxyethan-1-ol] + CN1CCCC1=O
mass density [kg/m3], [1]
Conditions	303.15 K	308.15 K	313.15 K	318.15 K
x2 = 0	892.28 ± 0.11	888.19 ± 0.11	884.17 ± 0.12	880.02 ± 0.12
x2 = 0.132	914.72 ± 0.35	911.2 ± 0.35	907.8 ± 0.36	904.37 ± 0.37
x2 = 0.255	934.22 ± 0.32	931.07 ± 0.33	928.06 ± 0.33	925.08 ± 0.34
x2 = 0.369	951.2 ± 0.3	948.27 ± 0.31	945.46 ± 0.31	942.72 ± 0.31
x2 = 0.477	966.04 ± 0.28	963.19 ± 0.28	960.43 ± 0.28	957.74 ± 0.28
x2 = 0.577	979 ± 0.26	976.12 ± 0.26	973.27 ± 0.26	970.48 ± 0.26
x2 = 0.672	990.36 ± 0.25	987.35 ± 0.24	984.32 ± 0.24	981.3 ± 0.23
x2 = 0.761	1000.3 ± 0.23	997.1 ± 0.23	993.8 ± 0.22	990.46 ± 0.21
x2 = 0.845	1009.04 ± 0.22	1005.59 ± 0.21	1001.93 ± 0.2	998.18 ± 0.19
x2 = 0.925	1016.72 ± 0.21	1012.95 ± 0.2	1008.89 ± 0.19	1004.66 ± 0.18
x2 = 0.948	1018.83 ± 0.2	1014.97 ± 0.19	1010.77 ± 0.18	1006.39 ± 0.17
x2 = 0.963	1020.19 ± 0.2	1016.26 ± 0.19	1011.97 ± 0.18	1007.49 ± 0.17
x2 = 0.978	1021.52 ± 0.2	1017.52 ± 0.19	1013.14 ± 0.18	1008.55 ± 0.16
x2 = 0.993	1022.82 ± 0.2	1018.74 ± 0.18	1014.27 ± 0.17	1009.57 ± 0.16

CN1CCCC1=O [N-methylpyrrolidone] + CCOCCO
[1], x1 = 1
Conditions	mass density [kg/m3]
303.15 K	1023.45 ± 0.09
308.15 K	1019.34 ± 0.09
313.15 K	1014.82 ± 0.09
318.15 K	1010.06 ± 0.09

CCCCOCCO [2-butoxyethan-1-ol]
[2]
Conditions	mass density [kg/m3]	vapor or sublimation pressure [kPa]
303.15 K	892.28 ± 0.12	–
308.15 K	888.19 ± 0.11	–
313.15 K	884.17 ± 0.12	–
318.15 K	880.02 ± 0.12	–
406.8 K	–	28.1 ± 6
412.1 K	–	34.2 ± 6
417.35 K	–	41.3 ± 6
421.57 K	–	47.9 ± 6
424.9 K	–	53.7 ± 6
428.43 K	–	60.5 ± 6
432.22 K	–	68.6 ± 6
435.52 K	–	76.4 ± 6
437.42 K	–	81.2 ± 6
440.2 K	–	88.7 ± 6
442.49 K	–	95.3 ± 6

CCOCCO [2-ethoxyethan-1-ol]
[2]
Conditions	mass density [kg/m3]	vapor or sublimation pressure [kPa]
303.15 K	921.21 ± 0.11	–
308.15 K	916.48 ± 0.11	–
313.15 K	911.88 ± 0.11	–
318.15 K	907.79 ± 0.11	–
373.48 K	–	28.1 ± 6
378.36 K	–	34.2 ± 6
383.18 K	–	41.3 ± 6
387.06 K	–	47.9 ± 6
390.12 K	–	53.7 ± 6
393.37 K	–	60.5 ± 6
396.86 K	–	68.6 ± 6
399.9 K	–	76.4 ± 6
401.65 K	–	81.2 ± 6
404.22 K	–	88.7 ± 6
406.33 K	–	95.3 ± 6
